A word on the Tmax: it is the time at which the peak concentration occurs. The term Cmax denotes the highest concentration seen after dosing. What is called AUC is the area under the concentration-time curve, a measure of exposure. A higher AUC goes with more exposure.

These results are taken from US20120270774A1, “MACROCYCLIC COMPOUNDS, COMPOSITIONS COMPRISING THEM AND METHODS FOR PREVENTING OR TREATING HIV INFECTION” (Yissum Research Development Company of the Hebrew …, priority 2009, published 2012).

The nature of data set [1]: Pharmacokinetics of oral CG-1 with or without ritonavir.
Method: The pharmacokinetic profile of CG-1 was studied following intravenous (IV) and per-os (PO) administration to rats. Studies were performed in conscious Wistar male rats. An indwelling cannula was implanted into the left jugular vein 24 hours before the pharmacokinetic experiment to allow full recovery of the animals from the surgical procedure. Animals (n=5) received an intravenous (IV) bolus dose of 1 mg/kg of CG-1 or 10 mg/kg by oral gavage (n=5), CG-1 was dissolved in water. […] CG-1 administration. Plasma was separated by centrifugation (4000 g, 5 min, 4° C.) and stored at −70° C. pending analysis. A non-compartmental pharmacokinetic approach was used to compare pharmacokinetic profiles obtained following different modes of administration and to calculate bioavailability values. All calculations were performed utilizing WinNonlin® 5.0.1 software (Pharsight Corporation, Mountain View, Calif., USA).
The pharmacokinetic tests were repeated as above with the addition of ritonavir to the oral administration of CG-1. The study included three groups; the first group received 10 mg/kg of CG-1 in aqueous solution, the second one received an emulsion of 10 mg/kg of CG-1 and 10 mg/kg of ritonavir and the third group received CG-1 in the same emulsion without ritonavir.
Data set [2] can be described thus: Pharmacokinetic profile of CG-1 following IV and PO administration.
Method: Rats were kept in a light-controlled room (light from 7:00 to 19:00) and were maintained on laboratory chow and water ad libitum.
The pharmacokinetic profile of CG-1 was studied following intravenous (IV) and per-os (PO) administration to rats. Studies were performed in conscious Wistar male rats. An indwelling cannula was implanted into the left jugular vein 24 hours before the pharmacokinetic experiment to allow full recovery of the animals from the surgical procedure. Animals (n=5) received an intravenous (IV) bolus dose of 1 mg/kg of CG-1 or 10 mg/kg by oral gavage (n=5), CG-1 was dissolved in water. […] Plasma was separated by centrifugation (4000 g, 5 min, 4° C.) and stored at −70° C. pending analysis. A non-compartmental pharmacokinetic approach was used to compare pharmacokinetic profiles obtained following different modes of administration and to calculate bioavailability values. All calculations were performed utilizing WinNonlin® 5.0.1 software (Pharsight Corporation, Mountain View, Calif., USA).
Non-compartmental pharmacokinetic analysis was performed using WinNonlin software, standard.
The subject of a further data set is HIV-1 strand HXB2. The data set is described as follows: HIV-1 infection inhibition, MAGI assay. In kind it is cell-based. To be noted: for effect on HIV-1 infection (in words): MAGI assay, cultured cells, μM range. The method, then:
Hela cells were obtained from ATCC, (Manassas, Va., USA) and then grown in 75 cm2 flasks with approximately 0.5×10^6 cells/flask at 37° C. in 5% CO2 atmosphere and at a relative humidity of 95%. The culture growth medium consisted of Dulbecco's Modified Eagle Medium (DMEM) supplemented with 10% heat-inactivated fetal bovine serum (FBS), 1% nonessential amino acids. The medium was replaced every other day. Titration of HIV-1 strand HXB2 in the absence or presence of the inhibitor was carried out by the multinuclear activation of a galactosidase indicator (MAGI) assay, similarly to the procedure described by Kimpton and […] (Virol. 66, 2232, 1992). Briefly, HeLa-CD4+beta-gal cells were transferred into 96-well plates at 15×10^3 cells per well. On the following day, the cells were infected with 50 μl of serially diluted virus in the presence of […] of DEAE-dextran (Pharmacia, Sweden). Two days post-infection, cultured cells were fixed with 1% formaldehyde and 0.2% glutaraldehyde in PBS. Following intensive wash with PBS, cells were stained with a solution of 4 mM potassium ferrocyanide, 4 mM potassium ferricyanide, 2 mM MgCl2 and 0.4 mg/ml of X-Gal (Ornat, Israel). Blue cells were counted under a light microscope. According to a slightly different procedure, the assay consisted of CD4 expressing Hela P4 cells containing the β-galactosidase reporter gene placed downstream […]. the HIV-LTR promotor. These cells were seeded 24 hours prior to viral infection at a density of 5×10^5 […] in 24 well culture plates (TPP model by Beyneix). 50 μL of virus solution prepared from CEM infected cells' supernatant, were incubated for 1 hour with the assayed peptides at the required concentrations, at 4° C. 10 μg of anti CD4 monoclonal antibodies 13B8.2 or […] were used as control. After incubation the virus solution was diluted to a total volume of 1 ml and was added to the Hela P4 cells. The cells were incubated at these conditions for 3 days after which their infection rate was assayed according to the β-galactosidase activity in the cells extract. The cells were washed well, harvested and disintegrated in a buffer containing 60 mM Na2HPO4, 40 mM NaH2PO4, 10 mM KCl, 1 mM MgSO4, 50 mM β-mercaptoethanol, 2.5 mM EDTA, 0.125% NP40, 0.125% triton, 20% glycerol, 0.2 mM PMSF and 100 U/ml approtinin. The cells extract was cleaned by centrifuge at 4° C. for 15 min at 13,000 rpm. β-galactosidase activity was determined by incubation of 150 μL of total cell extract at 37° C. for 2 hours in the presence of 6 mM ONPG (O-Nitrophenyl-β-D-galactopyranoside) in a buffer containing 80 mM Na2HPO4, 1 mM β-mercaptoethanol and 10 m MMgCl2, followed by absorption measurement at 410 nm. The β-galactosidase activity was normalized according to the total protein quantity in the assay.

Data set [3] can be described thus: Permeability ex-vivo, Ussing side by side diffusion chamber. In kind it is in vitro ADME, Wistar rats. Particulars: Ussing model.
Data set [4] concerns intestinal brush border enzymes. As to the kind of experiment: Brush border membrane vesicles (BBMV) stability. Type of data set: in vitro ADME, Wistar rats. Particulars: incubation in BBMVs at 37° C. The method, then: Brush border membrane vesicles (BBMVs) were prepared from combined duodenum, jejunum, and upper ileum by a Ca^+2 precipitation method ([…]., 1997., Biochim Biophys Acta 1323, 45-56, […] et al. 2003., Biochem Biophys Res Commun 301, 8-12). The intestines of 5 male Wistar rats, 200-250 gr, were rinsed with ice cold 0.9% NaCl and freed of mucus; the mucosa was scraped off the luminal surface with glass slides and put immediately into buffer containing […] and 10 mM Tris-HCl (pH 7.5, 4° C.) and then homogenated (Polytron PT 1200, Kinematica AG, Switzerland). CaCl2 was added to a final concentration of 10 mM. The homogenate was left shaking for 30 min at 4° C. and then centrifuged at 10,000 g for 10 min. The supernatant was then centrifuged at 48,000 g for 30 min and an additional two purification steps were undertaken by suspending the pellet in 300 mM mannitol and 10 mM Hepes/Tris (pH 7.5) and centrifuging at […]. Purification of brush border membranes was assayed using the brush border membrane enzyme markers gamma-glutamyl transpeptidase (GGT), leucine amino peptidase (LAP) and alkaline phosphatase. During the course of these studies, enrichment in brush border membrane enzymes varied between 13- and 18-fold. The enzymatic reaction was performed as previously reported (Ovadia et al., 2009, Bioorg Med Chem 18, 580-589). […]

The test system of data set [5] is pseudo typed viruses that express VSV-gp instead of gp-120. Type of data set: cell-based.
For the next data set, the system named is human liver microsomes. Type of data set: in vitro ADME. As to the method: The oxidative metabolism was evaluated in pooled liver microsomes of rats and humans with or without 3 μM of ketoconazole (CYP3A4 inhibitor) (Yang et al., 2005, Biopharm Drug Dispos 26, 387-402). The microsomes were purchased from BD Biosciences (Woburn, Mass.). […] The incubation mixture (3 ml) was prepared in triplicate for each species in a 0.1 m potassium phosphate buffer (pH 7.4) containing 1 μM of substrate, 0.5 μM CYP enzymes, 1.8 mM glucose-6-phosphate and 0.4 units/ml glucose-6-phosphate dehydrogenase. After a 5 min preincubation at 37° C., the reaction was initiated by adding β-NADPH (0.15 mM final concentration). Aliquots of 0.25 ml were taken at 0, 15 and 30 min and placed into 3 volumes of icecold acetonitrile (containing an internal standard) to terminate the reaction. The samples were vortexed and centrifuged at 10000 RPM for 8 min to collect supernatant for sample analysis.

[6] abbreviates: PO 10 mg/kg with RTV 10 mg/kg (emulsion).

Consider `N=C(N)NCCCC1NC(=O)CCCCCC(=O)NC(Cc2ccccc2)CN(CC(N)=O)C1=O` (centres unmarked) [CG-1], for which, in data set [1] (setting [6]), the Oral bioavailability amounted to 21±3%, the T1/2 stood at 93 ± 8 min and the Tmax was 18 ± 2 min. Moreover, in data set [1] (PO 10 mg/kg, without ritonavir), the Oral bioavailability is 7.3±1.6%, the T1/2 was determined as 73 ± 6 min and the Tmax turned out to be 18 ± 1.5 min. Further, the “Cmax increase when ritonavir was added” value in data set [1] (with vs without ritonavir) was determined as 3 fold. In addition, in data set [2] (IV bolus, 1 mg/kg), the Cmax was 102 ± 19 ng/mL and the time to peak (Tmax) worked out at 5 min. The same compound gave an Oral bioavailability in data set [2] (PO 10 mg/kg vs IV 1 mg/kg) of around 10%. For the same compound, in data set [2] (PO, 10 mg/kg oral gavage), the AUC came to 21770 ± 63 ng·min/mL, the Cmax is reported as 866 ± 76 ng/mL and the Tmax stood at 18 min. In data set [2] (printed in the PO row), this compound gave a CI of 14.53 ± 0.33 mL/min/kg and a Vss of 0.6 L/kg. Besides, the “effect on HIV-1 infection (in words)” value in the data set on HIV-1 strand HXB2 is on record as “low μM activity”. In addition, in the data set with HIV-1 strand HXB2 (low μM range), the “inhibition of viral infection” value is above 80%. In data set [3], the “permeability coefficient (Papp) ex-vivo compared with the other analogs” value is on record as “significantly higher than the other analogs”. For the same compound, the “transport in the distal regions” value in data set [3] (distal regions (ileum, colon)) is “significantly lower”. The “transport in the jejunum” value in data set [3] (jejunum) was “significantly higher”. Further, the “stability to enzymatic degradation in BBMVs” value in data set [4] was “metabolically stable and is not degraded”. In addition, the “infection inhibition of VSV-gp pseudo typed viruses” value in data set [5] is given as “did not have any effect”. In addition, in the data set with human liver microsomes, the “oxidative metabolism in liver microsomes” value is listed as “partially metabolized”. Further, the “microsomal stability with ketoconazole” value in the data set on human liver microsomes (human, microsomes) is “significantly improved its stability”.
For `N=C(N)NCCCC1NC(=O)CCCCCC(=O)NC(Cc2ccc(O)cc2)CN(CC(N)=O)C1=O` (centres unmarked) [MC-1], the “effect on HIV-1 infection (in words)” value with HIV-1 strand HXB2 is on record as “did not reduce the infectivity”.
The same measure, in the same setting: under `N=C(N)NCCCC1CN(CC(N)=O)C(=O)C(Cc2ccccc2)NC(=O)CCCCCC(=O)N1` (centres unmarked) [SC-1] stands “weak inhibitory effect”.
